In patent US20200054646A1, “USE OF PHENOTHIAZINE DERIVATIVE IN THE TREATMENT OF INFECTIOUS PURPURA OR PURPURA FULMINANS” (priority 2016, published 2020):

Experiments:
[1] = system: HDMEC infected with Nm2C4.3; test: Cytoskeleton remodelling and endothelial cell junction integrity of infected HDMEC (Ezrin, Actin, VE-cadherin immunostaining); assay type: cell-based, human
Description: (A) Experimental procedure: HDMEC were infected for 2 h with Nm2C4.3, treated for 1 h with gentamicin (150 μg/ml) and then 15 min with Trifluoperazine (50 μM) (or solvent alone as a control) and left in medium for 1 h before fixation. (B) Upper panels: Representative fluorescence microscopy showing the effect on the endothelial cell cytoskeleton remodelling analysed by immunostaining of Ezrin and Actin. Lower panels: Effect on the endothelial cell junction integrity was analysed by immunostaining of Actin and VE-cadherin. (C) Quantification of the bacterial colonization (upper panel) Ezrin recruitment and cortical actin polymerization at sites of bacterial adhesion (lower panel) was performed using Image J software.
HDMECs were grown in their specific culture medium (Promocell #C-12210) and confluent monolayers were infected with 2C4.3. Briefly, bacteria were precultured in prewarmed cell culture medium for 1 h 30 min at 37° C. 5% CO2. The OD600 was adjusted to 0.1 and HDMECs were then overlaid with bacteria for 30 min (MOI of 100). Unbound bacteria were removed by three washes in cell culture media and infection was allowed to proceed for 1 h at 37° C. 5% CO2. Gentamicin was added at 150 μg/ml for 1 h, then after three washes in cell culture media, Trifluoperazine was applied where mentioned at 50 μM for 20 min. After three washes in cell culture media, cells were allowed to recover for 1 h in cell culture media. At the indicated time, cells were fixed with 4% Paraformaldehyde for 10 min. Immunolabelling was then performed as above described in example 4, using DAPI, Alexa Fluor 633 Phalloidin, Polyclonal antisera raised against Ezrin, obtained from Pr P. Mangeat (CRBM, Montpellier, France) and anti-human VE-Cadherin (eBioscience #BMS158). When indicated, HBMECs were grown on Thermanox coverslips coated with gelatin 2% for 2 days to reach confluency. Cells were then infected as above described in the presence or in the absence of 5 μM Trifluoperazine for 2 h. Cells were washed and fixed in 4% paraformaldehyde and immunolabelling was performed with a polyclonal antisera raised anti-Nm2C4.3 strain, anti-human PECAM-1 mouse monoclonal, clone HEC7 (ABCAM ab119339) or rabbit polyclonal 177 raised against PECAM-1, obtained from WA Muller (Northwestern University, Chicago, Ill., US), anti-[…] catenin (05-482, UBI), polyclonal antisera raised against Ezrin, Alexa Fluor 633 Phalloidin. Secondary antibodies were from Jackson ImmunoResearch Laboratories. Image acquisitions were performed on a Leica DM16000 with Yokogawa CSU-X1M1 system and CoolSnap HQ2 (Photometrics). Quantifications were done using ImageJ software (NIH).

[2] = system: N. meningitidis 2C4.3 bacterial aggregates; test: microbe, parasite or virus in culture; assay type: cell-based, Neisseria meningitidis
Description: N. meningitidis 2C4.3 was grown in liquid culture at 10^7 CFU/ml for 2 h to form bacterial aggregates and were treated with increasing concentrations of Trifluoperazine (10 to 40 μM), Gentamicin (150 μg/ml) or cefotaxim (20 μg/ml) for 20 minutes and bacterial aggregates were immediately visualized using a phase-contrast microscope. […] (B) Quantification of the bacterial aggregation was performed using Image J software.
N. meningitidis 2C4.3 wild type strain and the isogenic derivative mutant PilT ([…]PilT) were grown in liquid culture at 10^7 CFU/ml for 2 h to form bacterial aggregates and then treated with 50 μM Trifluoperazine. Time lapse phase-contrast video microscopy was performed to visualize the effect on bacterial aggregates over time. Images were taken at the indicated time points of the video.
N. meningitidis 2C4.3 was grown in liquid culture at 10^7 CFU/ml for 2 h to form bacterial aggregates and were treated with 30 μM Trifluoperazine for 30 minutes to induce bacterial dispersion or PBS as a control. The medium was replaced to remove the Trifluoperazine and the reformation of bacterial aggregates were visualized overtime using a phase-contrast microscope.
FIG. 7. […] Bacteria were grown in suspension for 2 h then Phenothiazine derivatives were added at the indicated concentrations.
N. meninigitidis 2C4.3 strain was grown in suspension in wells of a 24 well plate, containing 1 ml of DMEM medium supplemented with 10% heat-inactivated fetal calf serum. After 2 h of growth, Trifluoperazine (or control vehicle) was added at various concentrations ranging from 10 to 40 μM for 20 min and the bacterial aggregates were visualized over time using a phase-contrast microscope.
N. meninigitidis 2C4.3 strain was grown in suspension in wells of a 24 well plate, containing 1 ml of DMEM medium supplemented with 10% heat-inactivated fetal calf serum. After 2 h of growth, various concentrations (0.5 to 80 μM) of phenothiazine-derivative compounds or control vehicle (PBS or DMSO) were added to the wells for 30 min and the bacterial aggregates were visualized using a phase-contrast microscope.
Were tested phenothiazine-derivative compounds of: • the Piperazine group: Trifluoperazine (Sigma #T8516), Fluphenazine (Sigma #F4765), Prochlorperazine (Sigma #P9178) Perphenazine (Sigma #P6402); • the Piperidine group: Thioridazine (Sigma #T9025) and Mesoridazin (Sigma #M4068); • the Aliphatic group: Chlorpromazine (Sigma #C8138), Promazine (Sigma #P6656), Triflupromazine (Sigma #1686003) and levomepromazine (Sigma #L0500000).

[3] = system: N. meningitidis Nm2C4.3 strain; test: Bactericidal activity on N. meningitidis in liquid culture (colony forming unit count); assay type: cell-based, Neisseria meningitidis; details: for viable count of the culture that contained 10^7 CFU/ml: 15 min treatment
Description: N. meningitidis Nm2C4.3 strain grown in liquid culture at 10^7 CFU/ml were treated with increasing concentrations of Trifluoperazine (10 to 50 μM) or Gentamicin (150 μg/ml) for 15 minutes (A) Bactericidal activity was determined by the count of colony forming units on GCB agar plates 24 h after treatment. (B) Images of the non-treated bacteria or bacteria treated with 30 μM TFP grown for 24 h on GCB agar plates.
Nm2C4.3, a piliated capsulated Opa^−Opc^− variant of the serogroup C meningococcal clinical isolate 8013, was cultured in Dulbecco's Modified Eagle Medium (DMEM) 4.5 g/L-Glutamax media 0,1% BSA during two hours at 37° C. 5% C02. A bacterial suspension at optical density (OD) 0.1 was then distributed in 24-well plate (1 ml/well). After 1 hour of incubation, Trifluoperazine (Sigma #T8516, stock solution in PBS) was added to obtain final concentrations of 10, 20, 30, 40, and 50 μM. Gentamicin (150 μg/ml in DMEM) and PBS alone were used as controls. After 15 min treatment, serial dilutions were performed in physiological water and 100 μl of each dilution were plated on Petri dishes containing GCB solid media (BD, Difco GC media) containing supplements, incubated overnight and the colony forming units were counted.

[4] = Gentamicin 150 μg/ml for 1 h alone
[5] = Trifluoperazine 50 μM in combination with gentamicin 150 μg/ml

SMILES | Ezrin recruitment, cortical actin polymerization, VE-cadherin distribution under residual colonies [1, 4] | number of colonies present at the cell surface [1, 4] | dispersion of bacterial aggregates formed in suspension ([2]; Gentamicin 150 μg/ml, 20 minutes) | bactericidal effect (in words) ([3]; Gentamicin 150 μg/ml, 15 min) | Ezrin recruitment under residual bacteria [1, 5] | dispersion of bacterial colonies at the endothelial cell surface [1, 5] | endothelial cell junction integrity (VE-cadherin staining, gaps between cells) [1, 5] | reversibility of the effect on aggregation upon removal ([2]; 30 μM for 30 minutes, then medium replaced) | dispersion of bacterial aggregates pre-formed for two hours ([2]; 10 to 40 μM, 20 min) | concentration range of dose-dependent dispersion of aggregates ([2]; 20 min treatment, suspension) | EC80 ([2]; Neisseria meningitidis, 0.5 h, read-out: Concentration promoting efficient meningococcal dispersal (~80%)) | time after addition at which dispersion occurs ([2]; time lapse video microscopy, 50 μM) | viable count of the culture that contained 10^7 CFU/ml ([3]; Trifluoperazine 50 μM) | viable count of the culture that contained 10^7 CFU/ml ([3]; Trifluoperazine 10 to 30 μM)
CN[C@@H]1[C@@H](O)C(O[C@@H]2[C@@H](O)[C@H](O[C@H]3O[C@H]([C@@H](C)NC)CC[C@H]3N)[C@@H](N)C[C@H]2N)OC[C@]1(C)O (stereo partly drawn) [Gentamicin, (3R,4R,5R)-2-{[(1S,2S,3R,4S,6R)-4,6-diamino-3-{[(2R,3R,6S)-3-amino-6-[(1R)-1-(methylamino)ethyl]oxan-2-yl]oxy}-2-hydroxycyclohexyl]oxy}-5-methyl-4-(methylamino)oxane-3,5-diol] | still induced Ezrin recruitment | reduced the number of colonies | did not significantly induce the dispersion | killed all bacteria | – | – | – | – | – | – | – | – | – | –
CN1CCN(CCCN2c3ccccc3Sc3ccc(C(F)(F)F)cc32)CC1 [Trifluoperazine] | – | – | – | – | Few Ezrin recruitment | induced the dispersion of most of the bacterial colonies | preserved endothelial cell junction integrity | reversible | induced their dispersion | 10 to 40 µM | 30 µM | 10 to 15 min | 10^3 CFU/ml | 10^6 CFU/ml
